Source: publication PMC9356039, “Multifunctional synthetic nano-chaperone for peptide folding and intracellular delivery” (Nature Communications, 2022)

Tests used:
[1] = test system: HepG2 cells; experiment: CCK-8 cell viability; format: cell-based, human; details: 24 h, 50
Procedure: Human liver cancer cell line HepG2 were grown in DMEM containing 10% FBS and 1% penicillin/streptomycin at 37 °C in a humidified atmosphere of 5% CO2. HepG2 cells (1.2 × 10^5 cells/well) were seeded in a 4-well glass plate for 24 h. Then, SNCPs@st-p53pep (0.02 mg/mL) and st-p53pep alone (2 μM) were added to each well in a serum-free medium for 4 h. After incubation, the cells were carefully rinsed with PBS, and the medium was replaced with a serum-containing fresh medium. After the nucleus was stained with Hoechst 33342 staining kit by manufacturer’s protocol, bright field and fluorescence images were obtained by using a DeltaVision Elite Microscopy System (GE Healthcare, USA). To observe the distribution of SNCP8 and st-p53pep in cells, TAMRA-labeled SNCP8@FAM-labeled st-p53pep (0.25 mg/mL) was treated in the same manner instead of SNCP8@st-p53pep. And then, the Mander’s overlap coefficient (MOC) was calculated in the Image J program (ver. 1.52a) via the JACoP plugin to identify co-localization between fluorescence signals over time. […] The cell viability was determined using cell counting kit-8 (CCK-8) assay by monitoring absorbance at 450 and 670 nm wavelength measured using a microplate reader (Molecular Devices, Inc., USA). The EC50 values of SNCPs@st-p53pep were determined by the logistic curve-fitting method with Origin (OriginLab, USA).

[2] = CD spectroscopy, α-helicity by CONTIN-LL; format: physicochemical; details: for helix %: CONTINLL from CD spectra, Avg of replicates Ⅰ-Ⅲ; for α-Helicity, helix % avg: CD spectra, CONTINLL, summary table, mean of n = 3
Procedure: CD spectra were measured using a J-810 spectropolarimeter (JASCO, Japan). Spectra were recorded from 250 nm to 190 nm wavelength using a 1 cm path-length cuvette. Scans were repeated five times and averaged. Molar ellipticity was calculated per amino acid residue. The concentrations of SNCP and p53pep were 0.2 mg/mL and 20 μM, respectively. All sample suspensions were incubated at least for 2 days at room temperature before CD measurement. To perform temperature-dependent CD experiments, the spectra were recorded at 10 °C interval over a temperature range of 25 to 75 °C, with 30 min incubation time to reach equilibrium at each temperature. The α-helicity of peptides was calculated by using the CONTIN-LL algorithms provided from the DICHROWEB server.

[3] = biological target: T1, MDM2_1-118 (hMDM2 protein) (Homo sapiens, UniProt Q00987); experiment: Fluorescence polarization binding affinity; details: peptide 50 nM, PBS pH 7.4, 0.01% Tween20, 10 mM DTT, 2% DMSO, room temperature, N = 3, mean ± SD
T1 construct: purchased SignalChem (Canada)
T1 sequence (Q00987 1-118): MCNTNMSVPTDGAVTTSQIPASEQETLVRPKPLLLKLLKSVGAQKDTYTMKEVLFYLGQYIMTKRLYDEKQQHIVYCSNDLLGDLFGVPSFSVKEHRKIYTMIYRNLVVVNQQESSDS
Procedure: Each of p53pep and st-p53pep (50 nM) were incubated with MDM2_1-118 with various concentrations in binding assay buffer (PBS pH 7.4 with 0.01% Tween20, 10 mM DTT, 2% DMSO) at room temperature. Binding affinity was measured by fluorescence polarization on a Biotek Synergy Neo2 multi-mode microplate reader. Kd values were determined by nonlinear regression analysis.

[4] = test system: proteinase K; experiment: in vitro; format: in vitro ADME; details: isolated enzyme proteinase k
Procedure: (§1) To investigate whether SNCP8@st-p53pep could effectively suppress tumor growth in vivo, we evaluated the anti-tumor effect of SNCP8@st-p53pep using human liver cancer (HepG2) xenograft bearing mouse model. Mice were treated with SNCP8@st-p53pep and controls by intratumoral injection every three days and tumor volume changes were monitored for 14 days. […] Next, we monitored distribution of TAMRA-SNCP8 (red), FAM-st-p53pep (green), and TAMRA-SNCP8@FAM-st-p53pep in the tumor-bearing mouse overtime after intratumoral injection. As shown in Fig. 5b and Supplementary Fig. 20, green fluorescence signal in the tumor treated with TAMRA-SNCP8@FAM-st-p53pep slowly diminished during 72 h, while signal in tumor treated with FAM-st-p53pep alone quickly disappeared within 24 h. […] To compare the lifetime of st-p53pep in tumor more precisely, we calculated the half-life (t1/2) of green fluorescence decay for each sample by analyzing region of interest (ROI) on the basis of whole-body fluorescence image (Fig. 5c).
(§2) Supplementary Figure 19. The proteolytic degradation of p53pep. Semi-quantitative analysis of protease-mediated degradation of p53pep by using the matrix-assisted laser desorption ionization time-of-flight mass spectrometry ( MALDI-TOF MS).
(§3) (a) Mass spectrum of p53pep without SNCP8 (left) and with SNCP8 (right) over 12 h.
(§4) The cumulative remaining p53pep in short (b) and long (c) periods in different conditions: p53pep (circle) and SNCP8@p53pep (square). Rapid degradation of free p53pep within 1 min is observed while the degradation of p53pep inside the SNCP8 […]
(§5) proteinase K (N = 3, biologically independent samples; mean ± SD).
(§6) (1 picture or pasted object on this page, not shown here)

[5] = biological target: proteinase K (Parengyodontium album, UniProt P06873); experiment: in vitro; format: in vitro ADME
proteinase K (Parengyodontium album, UniProt P06873), sequence (P06873 106-384, species assumed): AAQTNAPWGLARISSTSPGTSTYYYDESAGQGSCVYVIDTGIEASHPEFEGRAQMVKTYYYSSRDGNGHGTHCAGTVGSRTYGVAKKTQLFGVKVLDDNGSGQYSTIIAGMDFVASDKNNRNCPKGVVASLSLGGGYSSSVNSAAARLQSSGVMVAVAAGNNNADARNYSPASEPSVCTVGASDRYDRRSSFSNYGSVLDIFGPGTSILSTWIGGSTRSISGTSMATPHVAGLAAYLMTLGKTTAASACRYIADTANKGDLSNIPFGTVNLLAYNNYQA
Procedure: as §1, §2, §3, §4, §5, §6

[6] = Water solubility (in words); format: physicochemical
[7] = biological target: stapled p53 peptide prepared by click reaction (st-p53pep); experiment: fluorescence polarisation; 50 nM FAM-labelled peptide incubated with MDM2(1-118) at various concentrations; PBS pH 7.4 with 0.01% Tween20, 10 mM DTT, 2% DMSO; room temperature; Kd by nonlinear regression
[8] = biological target: synthetic p53 peptide (p53pep); experiment: as above
[9] = biological target: MDM2(1-118), a part of the target protein possessing the p53pep binding site (UniProt Q00987)
MDM2(1-118), a part of the target protein possessing the p53pep binding site (UniProt Q00987), sequence (Q00987 1-118): as the sequence (Q00987 1-118) above

MDM2(1-118), a part of the target protein possessing the p53pep binding site (from UniProt Q00987 1-118) (domain or fragment), sequence (Q00987 1-118): as above

Compound: C#CCCC(=O)NCCCC[C@@H](NC(=O)[C@H](Cc1ccccc1)NC(=O)[C@@H](NC(=O)[C@H](CCC(N)=O)NC(=O)[C@H](CCC(N)=O)NC(=O)[C@H](CO)NC(=O)[C@H](CCC(N)=O)NC(=O)CNC(=O)CNC(=O)c1ccc2c(c1)C(=O)OC21c2ccc(O)cc2Oc2cc(O)ccc21)[C@@H](C)O)C(=O)N[C@@H](CC(N)=O)C(=O)N[C@@H](CC(C)C)C(=O)N[C@@H](Cc1c[nH]c2ccccc12)C(=O)N[C@@H](CCCNC(=N)N)C(=O)N[C@@H](CC(C)C)C(=O)N[C@@H](CC(C)C)C(=O)N[C@@H](CCCN=[N+]=[N-])C(=O)N[C@@H](CCC(N)=O)C(=O)N[C@@H](CC(N)=O)C(N)=O [p53pep]
- cell viability at corresponding dose [1]: more than 80%
- helix % ([2]; 25C): 39.4%
- α-Helicity, helix % avg ([2]; 25 ℃): 39.4%
- helix % ([2]; 35C): 35.9%
- α-Helicity, helix % avg ([2]; 35 ℃): 35.9%
- helix % ([2]; 45C): 37.5%
- α-Helicity, helix % avg ([2]; 45 ℃): 37.5%
- helix % ([2]; 55C): 36.5667%
- helix % ([2]; 65C): 34.0667%
- helix % ([2]; 75C): 35.9667%
- Kd [3]: 80.6 ± 2.33 nM
- remaining at 1 min [4]: 16.9%
- remaining at 0.05 h [4]: 8.39%
- remaining at 5 min [4]: 5.56%
- remaining at 10 min [4]: 3.21%
- remaining at 0.5 h [4]: 6.68%
- remaining at 1 h [4]: 9.04%
- remaining at 12 h [4]: 3.85%
- time of degradation by proteinase K [5]: ≤ 1 min
- solubility in water (in words) [6]: insoluble in water

Compound: MDM2(1-118), a part of the target protein possessing the p53pep binding site (from UniProt Q00987 1-118) (domain or fragment)
- Kd [7]: 27.7 nM
- Kd [8]: 80.6 nM

Compound: synthetic p53 peptide (p53pep)
- viability of HepG2 cells (CCK-8) at the corresponding dose of SNCP8@p53pep (unstapled peptide delivered in SNCP8) [9]: > 80%
